Measurements taken from ChEMBL document CHEMBL2074158, “Interaction of omeprazole, lansoprazole and pantoprazole with P-glycoprotein” (Naunyn Schmiedebergs Arch Pharmacol, 2001).

Columns and labels:
[1] = biological target: T1, ATP-dependent translocase ABCB1 (Homo sapiens, UniProt P08183); assay: TP_TRANSPORTER: transepithelial transport (basal to apical) in MDR1-expressing LLC-PK1 cells; format: functional, cell-based; settings: pig
[2] = biological target: T1, ATP-dependent translocase ABCB1; assay: TP_TRANSPORTER: inhibition of Digoxin transepithelial transport (basal to apical) (Digoxin: 5 uM) in Caco-2 cells; format: functional, cell-based

T1 sequence (P08183 whole entry): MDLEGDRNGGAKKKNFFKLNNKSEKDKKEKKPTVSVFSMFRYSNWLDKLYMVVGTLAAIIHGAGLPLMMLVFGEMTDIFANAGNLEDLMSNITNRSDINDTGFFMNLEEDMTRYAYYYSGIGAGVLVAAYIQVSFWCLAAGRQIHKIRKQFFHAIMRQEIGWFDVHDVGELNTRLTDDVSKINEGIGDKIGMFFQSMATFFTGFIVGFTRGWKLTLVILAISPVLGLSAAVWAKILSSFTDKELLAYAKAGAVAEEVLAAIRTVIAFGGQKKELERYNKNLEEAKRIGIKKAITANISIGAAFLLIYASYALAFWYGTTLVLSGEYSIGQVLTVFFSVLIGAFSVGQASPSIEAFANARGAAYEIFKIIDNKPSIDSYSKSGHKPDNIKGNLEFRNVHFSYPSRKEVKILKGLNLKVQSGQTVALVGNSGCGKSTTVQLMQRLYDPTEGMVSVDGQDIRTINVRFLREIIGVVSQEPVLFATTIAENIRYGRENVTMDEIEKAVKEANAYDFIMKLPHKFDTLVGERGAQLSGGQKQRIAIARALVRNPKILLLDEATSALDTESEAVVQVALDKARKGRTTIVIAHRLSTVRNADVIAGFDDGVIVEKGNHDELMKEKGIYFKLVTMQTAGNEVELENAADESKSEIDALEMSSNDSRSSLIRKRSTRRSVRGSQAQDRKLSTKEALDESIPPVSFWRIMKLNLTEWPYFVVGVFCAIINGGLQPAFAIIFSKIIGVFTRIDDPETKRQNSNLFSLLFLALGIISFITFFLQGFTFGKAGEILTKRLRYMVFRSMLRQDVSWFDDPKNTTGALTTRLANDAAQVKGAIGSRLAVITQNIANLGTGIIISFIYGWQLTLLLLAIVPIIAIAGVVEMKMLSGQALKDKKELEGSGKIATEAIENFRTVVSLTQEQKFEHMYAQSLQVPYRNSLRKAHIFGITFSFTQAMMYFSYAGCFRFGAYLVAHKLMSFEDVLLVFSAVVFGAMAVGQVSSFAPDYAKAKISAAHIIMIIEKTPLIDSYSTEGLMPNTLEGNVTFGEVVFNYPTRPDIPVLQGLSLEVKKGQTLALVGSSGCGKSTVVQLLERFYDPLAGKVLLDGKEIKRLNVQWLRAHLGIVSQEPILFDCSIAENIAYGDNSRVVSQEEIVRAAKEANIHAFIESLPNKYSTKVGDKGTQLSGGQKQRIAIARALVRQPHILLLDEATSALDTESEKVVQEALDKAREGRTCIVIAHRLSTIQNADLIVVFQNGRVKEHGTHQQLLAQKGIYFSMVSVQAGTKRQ

Row | Activity [1] | IC50 [2] [µM] | SMILES
1 | substrate [+] | 17.7 | COc1ccc2[nH]c([S+]([O-])Cc3ncc(C)c(OC)c3C)nc2c1 (stereo unspecified) [OMEPRAZOLE]
2 | substrate [+] | 17.9 | COc1ccnc(C[S+]([O-])c2nc3ccc(OC(F)F)cc3[nH]2)c1OC (stereo unspecified) [PANTOPRAZOLE]

Row | SMILES | Activity [1] | IC50 [2] [µM]
3 | Cc1c(OCC(F)(F)F)ccnc1C[S+]([O-])c1nc2ccccc2[nH]1 (stereo unspecified) [LANSOPRAZOLE] | substrate [+] | 62.8
